“Also recorded” adds a separate entry of the source.
Columns and labels:
[1] = system: isolated beef liver mitochondria; experiment: Energy coupling (oxidative phosphorylation) in isolated mitochondria treated with bromoquinone; format: biochemical; conditions: NADH linked substrate; 2 instead of 3
Method: Introducing an electron-withdrawing group such as bromine should have an effect on the redox potential and UV spectrum, and this is indeed the case. Bromoquinone has a higher redox potential than that of Coenzyme Q10, by about 30 mV and UV spectral shift by 24 nm. A decrease of approximately 30% of energy conservation efficiency has been observed in isolated mitochondria that were treated with bromoquinone. This decrease may be due to the loss of energy conservation site II at Complex III in the bromoquinone-treated mitochondria (2).
When the rats were given 0.3 mL of a high fat mixture daily in addition to normal diet, a significant increase in weight gain was observed. […] Using NADH linked substrate 6-Br-Q0C10 treated mitochondria has a P/O ratio of 2 instead of 3. 6-Br-Q0C10 causes a by-passing of oxidative phosphorylation site 2 because of its high redox-potential.

rMC-1 cells = experiment: Cell counting assay (Trypan Blue), cell growth; format: cell-based, Rat; conditions: 48 hours
Method: (§1) Cell Counting Assay: For the cell counting assay, rMc-1, ARPE-19, and HepG2 cells were cultured in DMEM with 4.5 g/L glucose supplemented with 10% fetal bovine serum (FBS), penicillin, and streptomycin. These cells were seeded at 50% confluency before bromoquinone treatment. About 5,000 cells were seeded in a 24-well plate and treated with various amounts of bromoquinone and incubated at 37° C. under 5% CO2. Cell growth was examined by cell counting stained with Trypan Blue. The Raw264.7 and L929 cells were cultured in DMEM supplemented with 10% (vol/vol) heat-inactivated FBS (SH30910.03; Hyclone) at 37° C. and 5% CO2. THP-1 cells were cultured in RPMI-1640 medium supplemented with 10% (v/v) heat-inactivated FBS at 37° C. and 5% CO2.
(§2) When the cell lines (rM-1, ARPE-19 and Hep G2) were cultured for 48 hours in their corresponding media in the presence of various concentrations (0, 0.5, 2.5. 5, and 10 μM) of bromoquinone, the cell survival rate decreased as the concentration of bromoquinone increased. When the concentration of bromoquinone was 10 μM, the cell survival rate decreased by 70-80%, while under the same conditions, no effect on cell growth was observed if normal coenzyme Q or Q0C10 was used.

ARPE19 cells = experiment: Cell counting assay (Trypan Blue), cell growth; format: cell-based, Human; conditions: 48 hours
Method: as §1, §2

Hep G2 cells = experiment: Cell counting assay (Trypan Blue), cell growth; format: cell-based, Human; conditions: for Effect of Bromoquinone on the Growth (cell survival, % of 0 μM): Hep G2 cells, 48 hours
Method: as §1, §2

[2] = system: L-929, Raw 264-7 and THP-1 cells; experiment: Cell growth, live cell number by Trypan Blue (FIG. 3A); format: cell-based, Mouse; Human
Method: as §1
Cell Attachment Assay: For the cell attachment assay, Raw264.7 and L929 cells were pre-seeded (100,000 cells/well) in 12-well plates (overnight incubation) at 37° C. and 5% CO2. Bromoquinone was added 24 hours after pre-seeding, and cell attachment was determined by counting attached cells at 72 hours post-treatment. […] Bromoquinone was added 24 hours after pre-seeding, and cell attachment was determined by counting attached cells at 72 hours post-treatment. […] The live cell number was determined by Trypan Blue staining. […]

[3] = system: L-929, Raw 264-7 and THP-1 cells; experiment: Cell attachment assay (FIG. 3B); format: cell-based, Mouse; Human; conditions: 72 hours post-treatment
Method: (§3) Cell Attachment Assay: For the cell attachment assay, Raw264.7 and L929 cells were pre-seeded (100,000 cells/well) in 12-well plates (overnight incubation) at 37° C. and 5% CO2. Bromoquinone was added 24 hours after pre-seeding, and cell attachment was determined by counting attached cells at 72 hours post-treatment. THP-1 cells were pre-seeded (100,000 cells/well) in the presence of 320 nM phorbol-12-myristate-13-acetate (PMA) in 12-well plates (overnight incubation) at 37° C. and 5% CO2. Bromoquinone was added 24 hours after pre-seeding, and cell attachment was determined by counting attached cells at 72 hours post-treatment. Raw264.7, L929, and THP-1 cells were cultured in 12-well plates (100,000 cells/well) in the presence of bromoquinone for 72 hours at 37° C. and 5% CO2. The live cell number was determined by Trypan Blue staining. HEK293 and HeLa cells were cultured in DMEM supplemented with 10% (v/v) fetal bovine serum and 1% (v/v) penicillin-streptomycin. INS-1 cells were cultured in RPMI 1640 media supplemented with 10% (v/v) FBS and 1% (v/v) penicillin-streptomycin. All the cells were incubated at 37° C. and 5% CO2 atmosphere in 10-cm plates. When the cells reached about-80% confluency, they were harvested and cultured on 96-well plates with 5×10^3 cells seeded per well. […]

ADSC cells = experiment: Cell growth by cell counting, Trypan Blue and hemocytometer (FIG. 4A); format: cell-based, Human
Method: (§4) FIGS. 4A, 4B, and 4C illustrate the effect of bromoquinone on cell growth of HEK293, HeLa, INS-1, and ADSC cells. […] Cells were stained with bisbenzimide.
(§5) Cell Attachment Assay: For the cell attachment assay, Raw264.7 and L929 cells were pre-seeded (100,000 cells/well) in 12-well plates (overnight incubation) at 37° C. and 5% CO2. Bromoquinone was added 24 hours after pre-seeding, and cell attachment was determined by counting attached cells at 72 hours post-treatment. THP-1 cells were pre-seeded (100,000 cells/well) in the presence of 320 nM phorbol-12-myristate-13-acetate (PMA) in 12-well plates (overnight incubation) at 37° C. and 5% CO2. Bromoquinone was added 24 hours after pre-seeding, and cell attachment was determined by counting attached cells at 72 hours post-treatment. Raw264.7, L929, and THP-1 cells were cultured in 12-well plates (100,000 cells/well) in the presence of bromoquinone for 72 hours at 37° C. and 5% CO2. The live cell number was determined by Trypan Blue staining. HEK293 and HeLa cells were cultured in DMEM supplemented with 10% (v/v) fetal bovine serum and 1% (v/v) penicillin-streptomycin. INS-1 cells were cultured in RPMI 1640 media supplemented with 10% (v/v) FBS and 1% (v/v) penicillin-streptomycin. All the cells were incubated at 37° C. and 5% CO2 atmosphere in 10-cm plates. When the cells reached about-80% confluency, they were harvested and cultured on 96-well plates with 5×10^3 cells seeded per well. For each cell line, three 96-well plates were prepared—one for MTT assay and two for bisbenzimide-based nuclear fluorescent stain assay. After 24-hour incubation, the culture medium was replaced by the same medium containing various concentrations (0, 4, 8, 16, 32, and 64 μM) of bromoquinone. Three replicates were made for each condition. The plates then continued to be incubated for another 24 hours (two plates) or 48 hours (one plate). One plate with 24-hour treatment was used for the MTT cell viability assay. The other 24-hour treatment plate and the 48-hour treatment plate were used for the Bisbenzimide-based nuclear fluorescent stain cell imaging.
(§6) As described above, cell lines were cultured in their corresponding media in the presence of various concentrations of bromoquinone (0, 2, 4, 8, 16, 32, and 64 μM) for 48 and 72 hours. […] Similar results were obtained using the MTT assay (FIG. 4B). As expected, when the incubation was prolonged to 72 hours, more inhibition was observed.

HEK-293 cells = experiment: as above; format: cell-based, Human
Method: as §4, §5, §6

HeLa cells = experiment: as above; format: cell-based, Human
Method: as §4, §5, §6

INS-1 cell line = experiment: Cell growth inhibition (FIG. 4); format: cell-based, Rat; conditions: INS-1, highest concentration tested
Method: as §4
as §3, with “plates.” for “plates. When the cells reached about-80% confluency, they were harvested and cultured on 96-well plates with 5×10^3 cells seeded per well.”

[4] = Rat growth study: body weight gain, toxicity, food and water consumption; format: in vivo
Method: 6-Br-Q0C10: Crude 6-Br-Q0C10 was available in the laboratory. It was further purified to homogeneity using thin layer chromatography. The purity of 6-Br-Q0C10 was confirmed by its absorption peak at 303 nm and the concentration was determined spectrophotometrically, using a millimolar extinction coefficient of 20 cm^−1 (13), Carboyxmethyl cellulose was obtained from Amazon. Olive oil and unsalted butter were obtained from the local supermarket. 9 Male F344 (born on Sep. 28, 2023) were purchased from Evigo RMS, Inc, 8520 Allison Pointe Blvd, Suite 4000, Indianapolis, Indiana 46250 on Oct. 17, 2023.
The rats were divided into three groups, three rats in each group. We followed their growth by body weight gained daily until Nov. 5, 2023, and then one group of rats received the 6-Br-Q0C10 treatment, and the second group received only the carrier media used to dissolve the 6-Br-Q0C10, and the third group was used as control without any treatment. All rats had free access to rat chow and water.
Various concentrations of 6-Br-Q0C10 were dissolved in 1% and 1.5% CMC, 40% ethanol, and a mixture of oil and unsalted butter (67:33). 6-Br-Q0C10 solutions and carriers were given to the rats by IG in a volume of 0.3 mL daily. The body weights of the rats were measured and recorded individually and as a group. JACUC Protocol No: SC2101

Redox potential = format: physicochemical; conditions: difference to Coenzyme Q10
[5] = system: rM-1, ARPE-19 and Hep G2 cell lines; experiment: Cell counting assay, statements for the three cell lines together; format: cell-based, Rat; Human; conditions: for effect on cell growth: same conditions as bromoquinone (up to 10 μM, 48 hours)
Method: as §1, §2

[6] = system: commercially available cell lines; experiment: Cell growth of commercially available cell lines (halogen-Q0C10); format: cell-based; conditions: many commercially available cell lines

CCCCCCCCCCC1=C(Br)C(=O)C(OC)=C(OC)C1=O [6-Br-Q0C10, 6-Bromo-2,3-dimethoxy-5-decyl-1,4-benzoquinone]
P/O ratio [1]: 2
Effect of Bromoquinone on the Growth (cell survival, % of 0 μM) (rMC-1 cells; 0.5 μM bromoquinone): 88.2%
Effect of Bromoquinone on the Growth (cell survival, % of 0 μM) (rMC-1 cells; 1 μM bromoquinone): 80.1%
Effect of Bromoquinone on the Growth (cell survival, % of 0 μM) (rMC-1 cells; 2.5 μM bromoquinone): 68.1%
Effect of Bromoquinone on the Growth (cell survival, % of 0 μM) (rMC-1 cells; 5 μM bromoquinone): 36.2%
Effect of Bromoquinone on the Growth (cell survival, % of 0 μM) (rMC-1 cells; 10 μM bromoquinone): 27.9%
Effect of Bromoquinone on the Growth (cell survival, % of 0 μM) (ARPE19 cells; 0.5 μM bromoquinone): 85.4%
Effect of Bromoquinone on the Growth (cell survival, % of 0 μM) (ARPE19 cells; 1 μM bromoquinone): 80.9%
Effect of Bromoquinone on the Growth (cell survival, % of 0 μM) (ARPE19 cells; 2.5 μM bromoquinone): 60.0%
Effect of Bromoquinone on the Growth (cell survival, % of 0 μM) (ARPE19 cells; 5 μM bromoquinone): 41.9%
Effect of Bromoquinone on the Growth (cell survival, % of 0 μM) (ARPE19 cells; 10 μM bromoquinone): 26.6%
Effect of Bromoquinone on the Growth (cell survival, % of 0 μM) (Hep G2 cells; 0.5 μM bromoquinone): 103.1%
Effect of Bromoquinone on the Growth (cell survival, % of 0 μM) (Hep G2 cells; 1 μM bromoquinone): 107.8%
Effect of Bromoquinone on the Growth (cell survival, % of 0 μM) (Hep G2 cells; 2.5 μM bromoquinone): 104.2%
Effect of Bromoquinone on the Growth (cell survival, % of 0 μM) (Hep G2 cells; 5 μM bromoquinone): 98.1%
Effect of Bromoquinone on the Growth (cell survival, % of 0 μM) (Hep G2 cells; 10 μM bromoquinone): 93.3%
effect on Hep-G2 (cell growth) (Hep G2 cells; even at 10 μM): very small
inhibition at 50 µM [2]: ≤ 50%
inhibition at 50 µM [3]: 70%
inhibition (cell growth, cell counting) (ADSC cells; 48 hours of treatment, FIG. 4A): 82%
inhibition (cell growth) (ADSC cells; 72 hours): 90%
inhibition (cell growth, cell counting) (HEK-293 cells; HEK-293, 48 hours of treatment, FIG. 4A): 69%
inhibition (cell growth) (HEK-293 cells; HEK-293, 72 hours): 95%
inhibition (cell growth, cell counting) (HeLa cells; 48 hours of treatment, FIG. 4A): 66%
inhibition (cell growth) (HeLa cells; 72 hours): 97%
inhibition (cell growth) (INS-1 cell line): less than 20%
food and water consumption ([4]; 6-Br-Q0C10 treated rats): slight increase
reduction in body weight gain ([4]; rats, 0.5 mg/IG in 0.3 mL oil/butter (67%/33%) daily, compared to carrier mixture only): 30-40%
toxicity effect on rats ([4]; rats, even at the highest concentrations used): no toxicity effect
effect on growth (body weight gain) ([4]; rats, low concentrations, growth period): little effect; also recorded: slight
toxicity ([4]; rats, lower concentrations): no toxicity
redox potential higher than that of Coenzyme Q10 (Redox potential): about 30 mV
decrease of cell survival rate ([5]; 10 μM, 48 hours): 70-80%

CCCCCCCCCCC1=C(C)C(=O)C(OC)=C(OC)C1=O [Q0C10, 2,3-dimethoxy-5-decyl-6-methyl-1,4-benzoquinone]
effect on cell growth [5]: no effect

CCCCCCCCCCC1=C(Cl)C(=O)C(OC)=C(OC)C1=O [6-Cl-Q0C10, 6-Chloro-2,3-dimethoxy-5-decyl-1,4-benzoquinone]
reducing cell growth [6]: effective in reducing cell growth

COC1=C(OC)C(=O)C(CC=C(C)CCC=C(C)CCC=C(C)CCC=C(C)CCC=C(C)CCC=C(C)CCC=C(C)CCC=C(C)CCC=C(C)CCC=C(C)C)=C(C)C1=O [coenzyme Q10, 2,3-dimethoxy-5-(isoprenyl)10-6-methyl-1,4-benzoquinone]
effect on cell growth [5]: no effect
